From ChEMBL document CHEMBL4265905, “Synthesis and biological evaluation of novel Jiyuan Oridonin A-1,2,3-triazole-azole derivatives as antiproliferative agents” (Eur J Med Chem, 2018)
Activity calls are given as the source filed them. No cut-off for these calls is given here.

Legend:
[1] = organism: Homo sapiens; test: Inhibition of Wnt signaling pathway in human SMMC7721 cells assessed as increase in GSK3beta phosphorylation level up to 2 uM after 48 hrs by Western blot analysis; format: cell-based
[2] = organism: Homo sapiens; test: Inhibition of Wnt signaling pathway in human SMMC7721 cells assessed as reduction in beta-catenin expression level up to 2 uM after 48 hrs by Western blot analysis; format: cell-based
[3] = tested on: SMMC-7721; test: Antiproliferative activity against human SMMC7721 cells after 72 hrs by MTT assay; format: functional, cell-based; details: SMMC-7721, 72 h
[4] = tested on: MGC-803; test: Antiproliferative activity against human MGC803 cells after 72 hrs by MTT assay; format: functional, cell-based; details: MGC-803, 72 h
[5] = tested on: ECa-109 cell line; test: Antiproliferative activity against human ECA109 cells after 72 hrs by MTT assay; format: functional, cell-based; details: ECa-109, 72 h
[6] = tested on: SMMC-7721; test: Cell cycle arrest in human SMMC7721 cells assessed as accumulation at G1 phase at 2 uM after 12 hrs by propidium iodide staining based flow cytometry (reference value: 39.51%); format: functional
[7] = tested on: SMMC-7721; test: Cell cycle arrest in human SMMC7721 cells assessed as accumulation at S phase at 1 uM after 12 hrs by propidium iodide staining based flow cytometry (reference value: 36.98%); format: functional
[8] = tested on: SMMC-7721; test: Induction of apoptosis in human SMMC7721 cells assessed as viable cells at 0.5 uM after 12 hrs by Annexin V-FITC/PI staining based flow cytometry (reference value: 95.4%); format: functional; details: SMMC-7721, 12 h, read-out: Activity
[9] = tested on: SMMC-7721; test: Inhibition of colony formation in human SMMC7721 cells assessed as colony formation efficiency at 2 uM after two weeks by crystal violet staining based assay; format: functional; parameters: scale not given: the % may be the effect or the level left
[10] = tested on: PC-3; test: Antiproliferative activity against human PC3 cells after 72 hrs by MTT assay; format: functional, cell-based; details: PC-3, 72 h
[11] = tested on: SMMC-7721; test: Induction of apoptosis in human SMMC7721 cells assessed as viable cells at 2 uM after 12 hrs by Annexin V-FITC/PI staining based flow cytometry (reference value: 95.4%); format: functional; details: SMMC-7721, 12 h, read-out: Activity
[12] = tested on: A549; test: Antiproliferative activity against human A549 cells after 72 hrs by MTT assay; format: functional, cell-based; details: A549, 72 h
[13] = tested on: SMMC-7721; test: Induction of apoptosis in human SMMC7721 cells assessed as viable cells at 1 uM after 12 hrs by Annexin V-FITC/PI staining based flow cytometry (reference value: 95.4%); format: functional; details: SMMC-7721, 12 h, read-out: Activity
[14] = tested on: SMMC-7721; test: Induction of apoptosis in human SMMC7721 cells assessed as necrotic cells at 0.5 uM after 12 hrs by Annexin V-FITC/PI staining based flow cytometry (reference value: 0.8%); format: functional
[15] = tested on: SMMC-7721; test: Induction of apoptosis in human SMMC7721 cells assessed as late apoptotic cells at 2 uM after 12 hrs by Annexin V-FITC/PI staining based flow cytometry (reference value: 0.9%); format: functional
[16] = tested on: SMMC-7721; test: Induction of apoptosis in human SMMC7721 cells assessed as early apoptotic cells at 0.5 uM after 12 hrs by Annexin V-FITC/PI staining based flow cytometry (reference value: 2.8%); format: functional
[17] = tested on: SMMC-7721; test: Inhibition of colony formation in human SMMC7721 cells after two weeks by crystal violet staining based assay; format: functional, cell-based
[18] = tested on: SMMC-7721; test: Induction of apoptosis in human SMMC7721 cells assessed as early apoptotic cells at 1 uM after 12 hrs by Annexin V-FITC/PI staining based flow cytometry (reference value: 2.8%); format: functional
[19] = tested on: SMMC-7721; test: Cell cycle arrest in human SMMC7721 cells assessed as accumulation at G2 phase at 4 uM after 12 hrs by propidium iodide staining based flow cytometry (reference value: 18.97%); format: functional
[20] = tested on: SMMC-7721; test: Induction of apoptosis in human SMMC7721 cells assessed as necrotic cells at 2 uM after 12 hrs by Annexin V-FITC/PI staining based flow cytometry (reference value: 0.8%); format: functional
[21] = tested on: SMMC-7721; test: Cell cycle arrest in human SMMC7721 cells assessed as accumulation at G1 phase at 1 uM after 12 hrs by propidium iodide staining based flow cytometry (reference value: 39.51%); format: functional
[22] = tested on: SMMC-7721; test: Induction of apoptosis in human SMMC7721 cells assessed as necrotic cells at 1 uM after 12 hrs by Annexin V-FITC/PI staining based flow cytometry (reference value: 0.8%); format: functional
[23] = tested on: L02; test: Cytotoxicity against human HL7702 cells up to 72 hrs by MTT assay; format: cell-based; details: L02, 72 h
[24] = tested on: SMMC-7721; test: Inhibition of cell migration in human SMMC7721 cells after 24 hrs by wound healing based inverted microscopic analysis; format: functional
[25] = organism: Homo sapiens; test: Inhibition of Wnt signaling pathway in human SMMC7721 cells assessed as increase in APC expression level up to 2 uM after 48 hrs by Western blot analysis; format: cell-based
[26] = tested on: SMMC-7721; test: Cell cycle arrest in human SMMC7721 cells assessed as accumulation at G2 phase at 1 uM after 12 hrs by propidium iodide staining based flow cytometry (reference value: 18.97%); format: functional
[27] = tested on: SMMC-7721; test: Cell cycle arrest in human SMMC7721 cells assessed as accumulation at S phase at 4 uM after 12 hrs by propidium iodide staining based flow cytometry (reference value: 36.98%); format: functional
[28] = tested on: SMMC-7721; test: Cell cycle arrest in human SMMC7721 cells assessed as accumulation at S phase at 2 uM after 12 hrs by propidium iodide staining based flow cytometry (reference value: 36.98%); format: functional
[29] = tested on: SMMC-7721; test: Induction of apoptosis in human SMMC7721 cells assessed as late apoptotic cells at 1 uM after 12 hrs by Annexin V-FITC/PI staining based flow cytometry (reference value: 0.9%); format: functional
[30] = tested on: SMMC-7721; test: Induction of apoptosis in human SMMC7721 cells assessed as late apoptotic cells at 0.5 uM after 12 hrs by Annexin V-FITC/PI staining based flow cytometry (reference value: 0.9%); format: functional
[31] = tested on: MCF7; test: Antiproliferative activity against human MCF7 cells after 72 hrs by MTT assay; format: functional, cell-based; details: MCF7, 72 h
[32] = organism: Homo sapiens; test: Inhibition of Wnt signaling pathway in human SMMC7721 cells assessed as reduction in Dvl2 expression level up to 2 uM after 48 hrs by Western blot analysis; format: cell-based
[33] = tested on: SMMC-7721; test: Induction of apoptosis in human SMMC7721 cells assessed as early apoptotic cells at 2 uM after 12 hrs by Annexin V-FITC/PI staining based flow cytometry (reference value: 2.8%); format: functional
[34] = tested on: SMMC-7721; test: Cell cycle arrest in human SMMC7721 cells assessed as accumulation at G2 phase at 2 uM after 12 hrs by propidium iodide staining based flow cytometry (reference value: 18.97%); format: functional
[35] = tested on: SMMC-7721; test: Cell cycle arrest in human SMMC7721 cells assessed as accumulation at G1 phase at 4 uM after 12 hrs by propidium iodide staining based flow cytometry (reference value: 39.51%); format: functional

In the case of `C=C1C(=O)[C@]23[C@H](O)[C@H]1C[C@H](O)[C@H]2[C@]12CCCC(C)(C)[C@H]1C[C@H]3O[C@@H]2OCCCn1cc(CN2C(=O)S/C(=C/C)C2=O)nn1`, the inhibition [1] is reported as “Active”, the inhibition [2] is reported as “Active” and the IC50 [3] is reported as 200 nM. For the same compound, the IC50 [4] was 600 nM, the IC50 [5] was 2700 nM and the Activity [6] was 54.97%. For the same compound, the Activity [7] was 13.84%, the viability at 0.5 µM [8] was 86.2% and the Activity [9] was 5.7%. It also gave an IC50 [10] of 5 µM, a viability at 2 µM [11] of 68.2% and an IC50 [12] of 3.5 µM. The viability at 1 µM [13] was 79.3%, the Activity [14] was 1.1% and the Activity [15] was 2.5%. The Activity [16] was 7.2%, the inhibition [17] was “Dose-dependent effect” and the Activity [18] was 13.7%. The Activity [19] was 3.97%, the Activity [20] was 0.1% and the Activity [21] was 45.85%. For the same compound, the Activity [22] was 1.2%, the IC50 [23] was 18.1 µM and the inhibition [24] was “Dose-dependent effect”. For the same compound, the inhibition [25] was “Active”, the Activity [26] was 37.61% and the Activity [27] was 22.27%. The Activity [28] was 12.93%, the Activity [29] was 5.8% and the Activity [30] was 5.4%. For the same compound, the IC50 [31] was 1500 nM, the inhibition [32] was “Active” and the Activity [33] was 29.2%. It also gave an Activity [34] of 26.8% and an Activity [35] of 75.69%.
